These results are taken from patent US4745117A, “Imide derivatives and compositions for use as antipsychotic agents” (Sumitomo Pharmaceuticals Company, Limited, priority 1985, dated 1988).

For series [1], the system named is climbing behavior induced by apomorphine. The series is described as follows: Neuroleptic activity: anti-climbing behavior test (suppression of climbing behavior induced by apomorphine). In kind it is in vivo, mice (dd strain male). The conditions noted are these: for ED50: Mus musculus, read-out: ED50 (50% effective dose), anti-climbing.
Series [2] is described as follows: Extrapyramidal activity: catalepsy inducing activity test. The arrangement: species or system mice (dd strain male). The conditions noted are these: mouse, in vivo. The protocol: (§1) (2) Extrapyramidal activity
(§2) This activity was examined through the catalepsy inducing activity test as described in M. Fujiwara et al.: Folia Formacol., Japon: 85, 259-274 (1985). A designated amount of the test compound was orally administered to dd strain male mice (bodyweight, 22 to 27 g), and 1 and 4 hours after the administration, catalepsy induction was checked according to the Wirth et al method. Thus, each of the animals was forced to hang the forepows onto a metal pole of 2.5 mm in diameter horizontally situated at a height of 5 cm to maintain a strained state. The test was made with three replications, and the presence of at least one case where the animal was kept in the strained state over a period of 30 seconds was deemed to have caused catalepsy.

In a further series the test system is catalepsy. The description is as above. The arrangement: species or system mice (dd strain male). The conditions noted are these: mouse, in vivo. The procedure: as §1, §2
Setting [3] is: 50 min, Oral administration, apomorphine 1.0 mg/kg s.c. after 50 minutes, mice.
Setting [4] is: sc, Subcutaneous administration, apomorphine 1.0 mg/kg s.c., mice.

As usually defined, the ED50 is the dose at which the effect has come halfway, by size or by number of responders.

Where two headings read alike, the source gives them in different places. Where only a bound is given, the exact number is not on record here.

As for `O=C1CC2(CCCC2)CC(=O)N1CCCCN1CCN(c2nsc3ccccc23)CC1` [Tiaspiron, 8-[4-(3-benzisothiazolyl)-1-piperazinylbutyl]-8-azaspiro[4,5]decane-7,9-dione], the results for the 50% effective dose (ED50) in series [1] (setting [3]) and in series [1] (setting [4]) were over 10 mg/kg and 0.23 mg/kg, respectively.

`O=C1[C@@H]2[C@H]3CC[C@H](C3)[C@@H]2C(=O)N1CCCCN1CCN(c2nsc3ccccc23)CC1` [Compound No. 1, N-[4-{4-(1,2-Benzisothiazol-3-yl)-1-piperazinyl}butyl]bicyclo[2.2.1]heptane-2,3-di-exo-carboximide] showed a TD50 in series [2] (po) of 68.1 mg/kg. The ED50 worked out at 2 mg/kg in series [1] (setting [3]) and 0.15 mg/kg in series [1] (setting [4]).

In the case of `O=C(CCCN1CCC(O)(c2ccc(Cl)cc2)CC1)c1ccc(F)cc1` [Haloperidol, 4-[4-(4-chlorophenyl)-4-hydroxy-1-piperidinyl]-1-(4-fluorophenyl)-1-butanone], the “extrapyramidal activity (catalepsy inducing activity), in words” value in the series on catalepsy is listed as “considerably high level of extra-pyramidal activity”. Also, the TD50 in series [2] (oral administration, checked 1 and 4 hours after administration, mice, read-out: ED50, catalepsy induction) was under 5 mg/kg. Also, the ED50 in series [1] (sc) came out at 0.21 mg/kg. Further, in series [1] (route not stated), the “neuroleptic activity (anti-climbing activity), in words” value is reported as “significant neuroleptic activity”.

In series [2] (po), `O=C1[C@@H]2[C@@H]3CC[C@@H](C3)[C@@H]2C(=O)N1CCCCN1CCN(c2nsc3ccccc23)CC1` [Compound No. 5, N--[4-{4-(1,2-Benzisothiazol-3-yl)-1-piperazinyl}butyl]bicyclo[2.2.1]heptane-2,3-di-endo-carboximide] showed a TD50 of 112 mg/kg. Besides, the ED50 in series [1] (setting [3]) is 2.6 mg/kg; in series [1] (setting [4]), 0.13 mg/kg.
